Data reported in ChEMBL document CHEMBL1157046, “QSAR modeling of taxane analogues against colon cancer” (Eur J Med Chem, 2010).

Tested on: HCT-116
Experiment: Cytotoxicity against human HCT116 cells after 72 hrs
Type: functional, cell-based
Conditions: HCT-116, 72 h

Point of comparison: `COC(=O)O[C@@]12CO[C@@H]1C[C@H](O)[C@@]1(C)C(=O)[C@H](OC(C)=O)C3=C(C)[C@@H](OC(=O)[C@H](O)[C@@H](NC(=O)c4ccccc4)c4ccccc4)C[C@@](O)([C@@H](OC(=O)c4ccccc4)[C@H]21)C3(C)C` [BMS-188797], IC50 2 nM. Against it:
- C/C=C/C(=O)O[C@@]12CO[C@@H]1C[C@H](O)[C@@]1(C)C(=O)[C@H](OC(C)=O)C3=C(C)[C@@H](OC(=O)[C@H](O)[C@@H](NC(=O)c4ccccc4)c4ccccc4)C[C@@](O)([C@@H](OC(=O)c4ccccc4)[C@H]21)C3(C)C — within 1.5-fold, 2.29 nM
- CC(=O)O[C@H]1C(=O)[C@@]2(C)[C@H]([C@H](OC(=O)c3ccccc3)[C@]3(O)C[C@H](OC(=O)[C@H](O)[C@@H](NC(=O)c4ccccc4)c4ccccc4)C(C)=C1C3(C)C)[C@]1(OC(=O)C3CCC3)CO[C@@H]1C[C@@H]2O — within 1.5-fold, 1.51 nM
- CC(=O)O[C@H]1C(=O)[C@@]2(C)[C@H]([C@H](OC(=O)c3ccccc3)[C@]3(O)C[C@H](OC(=O)[C@H](O)[C@@H](NC(=O)c4ccccc4)c4ccccc4)C(C)=C1C3(C)C)[C@]1(OC(=O)CF)CO[C@@H]1C[C@@H]2O — 3.5-fold higher, 7.08 nM
- CC(=O)O[C@H]1C(=O)[C@@]2(C)[C@H]([C@H](OC(=O)c3ccccc3)[C@]3(O)C[C@H](OC(=O)[C@H](O)[C@@H](NC(=O)c4ccccc4)c4ccccc4)C(C)=C1C3(C)C)[C@]1(OC(=O)c3ccccc3)CO[C@@H]1C[C@@H]2O — 200-fold higher, 407 nM
- CC(=O)O[C@H]1C(=O)[C@@]2(C)[C@H]([C@H](OC(=O)c3ccccc3)[C@]3(O)C[C@H](OC(=O)[C@H](O)[C@@H](NC(=O)c4ccccc4)c4ccccc4)C(C)=C1C3(C)C)[C@]1(OC(=O)n3ccnc3)CO[C@@H]1C[C@@H]2O — 400-fold higher, 794 nM
- CCCC(=O)O[C@@]12CO[C@@H]1C[C@H](O)[C@@]1(C)C(=O)[C@H](OC(C)=O)C3=C(C)[C@@H](OC(=O)[C@H](O)[C@@H](NC(=O)c4ccccc4)c4ccccc4)C[C@@](O)([C@@H](OC(=O)c4ccccc4)[C@H]21)C3(C)C — 1.8-fold lower, 1.1 nM
- CCCOC(=O)O[C@@]12CO[C@@H]1C[C@H](O)[C@@]1(C)C(=O)[C@H](OC(C)=O)C3=C(C)[C@@H](OC(=O)[C@H](O)[C@@H](NC(=O)c4ccccc4)c4ccccc4)C[C@@](O)([C@@H](OC(=O)c4ccccc4)[C@H]21)C3(C)C — within 1.5-fold, 2.57 nM
- CC(=O)O[C@H]1C(=O)[C@@]2(C)[C@H]([C@H](OC(=O)c3ccccc3)[C@]3(O)C[C@H](OC(=O)[C@H](O)[C@@H](NC(=O)c4ccccc4)c4ccccc4)C(C)=C1C3(C)C)[C@]1(OC(=O)C3CCCC3)CO[C@@H]1C[C@@H]2O — the same, 2 nM
- CC(=O)O[C@H]1C(=O)[C@@]2(C)[C@H]([C@H](OC(=O)c3ccccc3)[C@]3(O)C[C@H](OC(=O)[C@H](O)[C@@H](NC(=O)c4ccccc4)c4ccccc4)C(C)=C1C3(C)C)[C@]1(OC(=O)NC3CCC3)CO[C@@H]1C[C@@H]2O — 4.6-fold higher, 9.12 nM
- CC(=O)O[C@H]1C(=O)[C@@]2(C)[C@H]([C@H](OC(=O)c3ccccc3)[C@]3(O)C[C@H](OC(=O)[C@H](O)[C@@H](NC(=O)c4ccccc4)c4ccccc4)C(C)=C1C3(C)C)[C@]1(OC(=O)C3CC3)CO[C@@H]1C[C@@H]2O — 2-fold lower, 1 nM
- C=CC(=O)O[C@@]12CO[C@@H]1C[C@H](O)[C@@]1(C)C(=O)[C@H](OC(C)=O)C3=C(C)[C@@H](OC(=O)[C@H](O)[C@@H](NC(=O)c4ccccc4)c4ccccc4)C[C@@](O)([C@@H](OC(=O)c4ccccc4)[C@H]21)C3(C)C — 3-fold higher, 6.03 nM
- CC(=O)O[C@H]1C(=O)[C@@]2(C)[C@H]([C@H](OC(=O)c3ccccc3)[C@]3(O)C[C@H](OC(=O)[C@H](O)[C@@H](NC(=O)c4ccccc4)c4ccccc4)C(C)=C1C3(C)C)[C@]1(OC(=O)C(Cl)(Cl)Cl)CO[C@@H]1C[C@@H]2O — 2-fold higher, 3.98 nM
- CC(=O)O[C@H]1C(=O)[C@@]2(C)[C@H]([C@H](OC(=O)c3ccccc3)[C@]3(O)C[C@H](OC(=O)[C@H](O)[C@@H](NC(=O)c4ccccc4)c4ccccc4)C(C)=C1C3(C)C)[C@]1(OC(=O)C(C)C)CO[C@@H]1C[C@@H]2O — 2.5-fold higher, 5.01 nM
- CC(=O)O[C@H]1C(=O)[C@@]2(C)[C@H]([C@H](OC(=O)c3ccccc3)[C@]3(O)C[C@H](OC(=O)[C@H](O)[C@@H](NC(=O)c4ccccc4)c4ccccc4)C(C)=C1C3(C)C)[C@]1(OC(=O)c3ccc(F)cc3)CO[C@@H]1C[C@@H]2O — 400-fold higher, 794 nM
- CCCCCC(=O)O[C@@]12CO[C@@H]1C[C@H](O)[C@@]1(C)C(=O)[C@H](OC(C)=O)C3=C(C)[C@@H](OC(=O)[C@H](O)[C@@H](NC(=O)c4ccccc4)c4ccccc4)C[C@@](O)([C@@H](OC(=O)c4ccccc4)[C@H]21)C3(C)C — 3-fold higher, 6.03 nM
